# Experimental data reported in PubChem BioAssay AID1918946 (Molecular Pharmacology Branch, DTP, NCI, 2023).
# Test system: 885512-296-R-J2-PDC complex spheroid viability
# Experiment: Anticancer human tumor 885512-296-R-J2-PDC patient-derived breast carcinoma cell line growth inhibition
# Details: for IC50: curve of first compound; for viability, T/C: stronger effect = lower value
# Source text: Multicellular complex tumor spheroid response to LSD1 Inhibitor Iadademstat in combination with a variety of drugs and investigational agents in selected tumor cell lines
# The current study was undertaken to assess response to LSD1 inhibitors in combination with standard-of-care drugs and investigational agents in solid tumor complex spheroid models as well as in the K-562 leukemia. Complex spheroids include a stromal component modeled by human endothelial cells (HUVEC) and fibroblasts modeled by human mesenchymal stem cells (MSCs). The concentration ranges selected for each drug and investigational agent were based upon clinically achievable concentrations if the clinical Cmax of the agent was known.
# Compounds. The drugs and investigational agents used in this study are listed on Table 1. All of the agents used, including staurosporine (NSC755774) and gemcitabine (NSC613327), were obtained from the Developmental Therapeutics Program, NCI. FDA-approved anticancer drugs are available from the NCI at http://dtp.nci.nih.gov/branches/dscb/oncology_drugset_explanation.html. Drugs and investigational agents were >95% pure by proton nuclear magnetic resonance (NMR) and liquid chromatography/mass spectrometry (LC/MS). Stock solutions were prepared at 400x in DMSO, stored at -70 degrees C, and diluted in fresh medium prior to their use. The final concentration of DMSO in cell culture wells never exceeded 0.25% (v/v). The FDA-approved anticancer drug set is available from the Developmental Therapeutics Program at https://dtp.cancer.gov/organization/dscb/obtaining/available_plates.htm. All drugs and investigational agents were tested over a range starting from a high concentration at or near the clinical Cmax and decreasing in half-log increments. If the clinical Cmax for an agent had not been determined, the highest concentration tested was 10 microM.
# Cell Lines. The patient-derived cancer cell (PDC) lines: 292921-168-R-J2-PDC, K24384-001-R-PDC, and 521955-158-R2-J5-PDC pancreatic carcinomas, 556581-035-R-J1 ovarian carcinoma, 324938-238-R-J1-PDC, 855422-203-R-J1-PDC and 883617-216-R-J1-PDC urothelial bladder carcinomas, 743489-274-T-PDC renal cell carcinoma, 138582-R-J1 Merkel cell tumor, K60290-347-R-J1 and K57222-313-R-J1-PDC glioblastomas, 653999-131-R-J2-PDC, LG0703-F948-PDC, and 349418-098-R-PDC non-small cell lung carcinomas, 885512-296-R-J2-PDC, 171881-019-R-J1-PDC breast carcinomas and 186277-243-T-J2-PDC and 233499-124-R-J2-PDC colon carcinomas were obtained from the NCI Patient-Derived Models Repository (PDMR, https://pdmr.cancer.gov). The established cell lines NCI/ADR-RES (RRID:CVCL_14520 and OVCAR-5 (RRID:CVCL_1628) ovarian carcinomas, 786-O (RRID:CVCL_1051) and A498 (RRID:CVCL_A498) renal cell carcinoma, NCI-H211 (ATCC, cat. CRL-5824; RRID:CVCL_1529), NCI-H196 (ATCC, cat. CRL-5823, RRID:CVCL_1509), SW 1271 (ATCC, cat. CRL-2177, RRID:CVCL_1716) and NCI-H1876 (ATCC, cat. CRL-5902, RRID:CVCL_1503) small cell lung carcinomas, MDA-MB-231 (RRID:CVCL_0062) and MDA-MB-468 (RRID:CVCL_0419)breast carcinomas (10-12). Pooled donor human umbilical vein endothelial cells (HUVEC, Lonza, cat. CC-2519) and human mesenchymal stem cells (hMSC, Lonza, cat. PT-2501) were purchased from Lonza (Walkersville, MD).
# Cell Culture. All cells were maintained in an incubator at 37 degrees C and 5% CO2 with 95% humidity. The PDC lines were cultured according to standard operating procedures established by the NCI PDMR (https://pdmr.cancer.gov). Briefly all PDCs were thawed and cultured in Matrigel-coated flasks prepared with a working solution of 1X Ham's F-12 nutrient mix, without supplementation (Invitrogen, Waltham, MA, cat. 11765054), 100 U/mL penicillin-streptomycin (Invitrogen, cat. 15140122), and 2.5% Matrigel (Corning Inc., Corning, NY, cat. 354248) for the first three passages. […]
# 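Further: spheroids exposed to agents for 7 days before viability read.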
smiles,measurement,setting,value
O=C(c1cc(Cc2n[nH]c(=O)c3ccccc23)ccc1F)N1CCN(C(=O)C2CC2)CC1 + NC1CC1c1ccc(-c2cccc(O)c2)cc1,IC50,second compound 0.1 µM,0.945 µM
same,IC50,second compound 0.316 µM,0.896 µM
same,IC50,second compound 1 µM,0.805 µM
same,IC50,second compound 3.16 µM,0.66 µM
same,IC50,second compound 10 µM,0.361 µM
same,"viability, T/C","second compound 0.1 µM, first compound 0.0316 µM",116%
same,"viability, T/C","second compound 0.1 µM, first compound 0.1 µM",106%
same,"viability, T/C","second compound 0.1 µM, first compound 0.316 µM",90.9%
same,"viability, T/C","second compound 0.1 µM, first compound 1 µM",48.6%
same,"viability, T/C","second compound 0.1 µM, first compound 3.16 µM",13.1%
same,"viability, T/C","second compound 0.1 µM, first compound 10 µM",4.93%
same,"viability, T/C","second compound 0.316 µM, first compound 0.0316 µM",103%
same,"viability, T/C","second compound 0.316 µM, first compound 0.1 µM",114%
same,"viability, T/C","second compound 0.316 µM, first compound 0.316 µM",76.6%
same,"viability, T/C","second compound 0.316 µM, first compound 1 µM",51.7%
same,"viability, T/C","second compound 0.316 µM, first compound 3.16 µM",10.8%
same,"viability, T/C","second compound 0.316 µM, first compound 10 µM",5.15%
same,"viability, T/C","second compound 1 µM, first compound 0.0316 µM",96.9%
same,"viability, T/C","second compound 1 µM, first compound 0.1 µM",105%
same,"viability, T/C","second compound 1 µM, first compound 0.316 µM",88.7%
same,"viability, T/C","second compound 1 µM, first compound 1 µM",40.4%
same,"viability, T/C","second compound 1 µM, first compound 3.16 µM",13.3%
same,"viability, T/C","second compound 1 µM, first compound 10 µM",4.98%
same,"viability, T/C","second compound 3.16 µM, first compound 0.0316 µM",111%
same,"viability, T/C","second compound 3.16 µM, first compound 0.1 µM",80.8%
same,"viability, T/C","second compound 3.16 µM, first compound 0.316 µM",75.9%
same,"viability, T/C","second compound 3.16 µM, first compound 1 µM",41.1%
same,"viability, T/C","second compound 3.16 µM, first compound 3.16 µM",9.4%
same,"viability, T/C","second compound 3.16 µM, first compound 10 µM",4.81%
same,"viability, T/C","second compound 10 µM, first compound 0.0316 µM",80.1%
same,"viability, T/C","second compound 10 µM, first compound 0.1 µM",70%
same,"viability, T/C","second compound 10 µM, first compound 0.316 µM",55.1%
same,"viability, T/C","second compound 10 µM, first compound 1 µM",22.2%
same,"viability, T/C","second compound 10 µM, first compound 3.16 µM",6.21%
same,"viability, T/C","second compound 10 µM, first compound 10 µM",4.07%
Nc1ccccc1NC(=O)c1ccc(CNC(=O)OCc2cccnc2)cc1 + NC1CC1c1ccc(-c2cccc(O)c2)cc1,IC50,second compound 0.1 µM,0.0482 µM
same,IC50,second compound 0.316 µM,0.0504 µM
same,IC50,second compound 1 µM,0.0419 µM
same,IC50,second compound 3.16 µM,0.0431 µM
same,IC50,second compound 10 µM,0.0239 µM
same,"viability, T/C","second compound 0.1 µM, first compound 0.00949 µM",99.3%
same,"viability, T/C","second compound 0.1 µM, first compound 0.03 µM",63.1%
same,"viability, T/C","second compound 0.1 µM, first compound 0.0949 µM",30.5%
same,"viability, T/C","second compound 0.1 µM, first compound 0.3 µM",17.5%
same,"viability, T/C","second compound 0.1 µM, first compound 0.949 µM",6.69%
same,"viability, T/C","second compound 0.1 µM, first compound 3 µM",0.26%
same,"viability, T/C","second compound 0.316 µM, first compound 0.00949 µM",104%
same,"viability, T/C","second compound 0.316 µM, first compound 0.03 µM",61.7%
same,"viability, T/C","second compound 0.316 µM, first compound 0.0949 µM",37.2%
same,"viability, T/C","second compound 0.316 µM, first compound 0.3 µM",12.3%
same,"viability, T/C","second compound 0.316 µM, first compound 0.949 µM",5.8%
same,"viability, T/C","second compound 0.316 µM, first compound 3 µM",0.31%
same,"viability, T/C","second compound 1 µM, first compound 0.00949 µM",102%
same,"viability, T/C","second compound 1 µM, first compound 0.03 µM",53.8%
same,"viability, T/C","second compound 1 µM, first compound 0.0949 µM",35.2%
same,"viability, T/C","second compound 1 µM, first compound 0.3 µM",15%
same,"viability, T/C","second compound 1 µM, first compound 0.949 µM",5.26%
same,"viability, T/C","second compound 1 µM, first compound 3 µM",0.29%
same,"viability, T/C","second compound 3.16 µM, first compound 0.00949 µM",94.2%
same,"viability, T/C","second compound 3.16 µM, first compound 0.03 µM",57.9%
same,"viability, T/C","second compound 3.16 µM, first compound 0.0949 µM",32.8%
same,"viability, T/C","second compound 3.16 µM, first compound 0.3 µM",12.7%
same,"viability, T/C","second compound 3.16 µM, first compound 0.949 µM",5.2%
same,"viability, T/C","second compound 3.16 µM, first compound 3 µM",0.22%
same,"viability, T/C","second compound 10 µM, first compound 0.00949 µM",65.8%
same,"viability, T/C","second compound 10 µM, first compound 0.03 µM",45.7%
same,"viability, T/C","second compound 10 µM, first compound 0.0949 µM",27.9%
same,"viability, T/C","second compound 10 µM, first compound 0.3 µM",12.9%
same,"viability, T/C","second compound 10 µM, first compound 0.949 µM",4.05%
same,"viability, T/C","second compound 10 µM, first compound 3 µM",0.22%
